Experiment [1] concerns Stomach. Nature of the experiment: Myorelaxant activity in New Zealand white rabbit gastric fundus smooth muscle assessed as relaxation of noradrenaline-induced contraction at 3 x 10^-4 M relative to control. It is filed as functional. Conditions: Oryctolagus cuniculus.
Experiment [2] has as its system Stomach. Nature of the experiment: Myorelaxant activity in New Zealand white rabbit gastric fundus smooth muscle assessed as relaxation of noradrenaline-induced contraction in presence of glibenclamide. It is filed as functional, tissue-based. Conditions: Oryctolagus cuniculus.
Experiment [3] concerns Stomach. Nature of the experiment: Myorelaxant activity in New Zealand white rabbit gastric fundus smooth muscle assessed as relaxation of noradrenaline-induced contraction in presence of tetraethylammonium chloride. It is filed as functional, tissue-based. Conditions: Oryctolagus cuniculus.
For experiment [4], the system named is Stomach. Nature of the experiment: Myorelaxant activity in New Zealand white rabbit gastric fundus smooth muscle assessed as relaxation of noradrenaline-induced contraction. It is filed as functional, Oryctolagus cuniculus.
Experiment [5] deals with Stomach. Description: Myorelaxant activity in New Zealand white rabbit gastric fundus smooth muscle assessed as relaxation of noradrenaline-induced contraction in presence of propranolol. To be noted: Oryctolagus cuniculus. It is filed as functional, tissue-based.
In experiment [6] the test system is Stomach. Description: Myorelaxant activity in New Zealand white rabbit gastric fundus smooth muscle assessed as relaxation of noradrenaline-induced contraction in presence of L-NAME. It is filed as functional, tissue-based. Conditions: Oryctolagus cuniculus.
The subject of experiment [7] is Stomach. Description: Myorelaxant activity in New Zealand white rabbit gastric fundus smooth muscle assessed as relaxation of noradrenaline-induced contraction in presence of indomethacin. It is filed as functional, tissue-based. To be noted: Oryctolagus cuniculus.

The record followed here is ChEMBL document CHEMBL3120091, “Microwave-assisted synthesis and myorelaxant activity of 9-indolyl-1,8-acridinedione derivatives” (2014).

Each structure is given as a SMILES string. The source made the active and inactive calls. The calls are words filed in the database; no cut-off is given here.

What is called Emax is the size of the effect at its maximum, as opposed to the concentration needed. In the case of `CC1(C)CCC2=C(C1=O)C(c1c[nH]c3cc(Br)ccc13)C1=C(CCC(C)(C)C1=O)N2`, the Emax at 300 µM in the experiment with Stomach [1] stood at 12%. Also, the result with Stomach [2] and in the experiment with Stomach [3] was Active. Also, the pD2 in the experiment on Stomach [4] stood at 4.54.
In the case of `Cn1c(C2C3=C(CCCC3=O)NC3=C2C(=O)CCC3)cc2ccccc21`, the Emax entry in the experiment on Stomach [1] is “inactive”. Besides, the outcome in the experiment on Stomach [5], in the experiment on Stomach [6] and with Stomach [7] was Active. In addition, the pD2 entry with Stomach [4] (Oryctolagus cuniculus) was “inactive”.
For the compound `CC1(C)CC(=O)C2=C(C1)NC1=C(C(=O)CC(C)(C)C1)C2c1c[nH]c2ccc(Br)cc12`, the Emax at 300 µM in the experiment on Stomach [1] is 71.5%. Also, the outcome in the experiment on Stomach [2] and with Stomach [3] was Active. Further, the pD2 in the experiment with Stomach [4] is 3.85.
For the compound `CC1(C)CCC2=C(C1=O)C(c1c[nH]c3ccc(Br)cc13)C1=C(CCC(C)(C)C1=O)N2`, the Emax at 300 µM in the experiment with Stomach [1] is 17.5%. Also, the outcome in the experiment on Stomach [2] and in the experiment on Stomach [3] was Active. In addition, the pD2 in the experiment on Stomach [4] was 4.46.
Consider `Cn1cc(C2C3=C(CCC(C)(C)C3=O)NC3=C2C(=O)C(C)(C)CC3)c2ccccc21`, for which the Emax entry with Stomach [1] was “inactive”. The result in the experiment with Stomach [5], in the experiment with Stomach [6] and with Stomach [7] was Active. In addition, in the experiment with Stomach [4] (Oryctolagus cuniculus), the pD2 entry is “inactive”.
As for `Cn1cc(C2C3=C(CC(C)(C)CC3=O)NC3=C2C(=O)CC(C)(C)C3)c2ccccc21`, the Emax at 300 µM with Stomach [1] was determined as 28.6%. Moreover, the outcome with Stomach [2] and with Stomach [3] was Active. The pD2 in the experiment with Stomach [4] is given as 4.28.
Turning to `Cn1c(C2C3=C(CCC(C)(C)C3=O)NC3=C2C(=O)C(C)(C)CC3)cc2ccccc21`, the Emax at 300 µM in the experiment with Stomach [1] is 11.6%. The result with Stomach [2] and with Stomach [3] was Active. In addition, the pD2 in the experiment on Stomach [4] came to 4.6.
On to `O=C1CCCC2=C1C(c1c[nH]c3cc(Br)ccc13)C1=C(CCCC1=O)N2`, for which the Emax result with Stomach [1] is “inactive”. Moreover, the outcome with Stomach [5], with Stomach [6] and with Stomach [7] was Active. Also, the pD2 entry in the experiment with Stomach [4] (Oryctolagus cuniculus) was “inactive”.
As to `CC(N/C(=N\C#N)Nc1ccncc1)C(C)(C)C` (stereo not given) [PINACIDIL ANHYDROUS], the Emax at 300 µM with Stomach [1] turned out to be 63.8%. Moreover, the pD2 with Stomach [4] is reported as 3.9.
For `CC1(C)CC(=O)C2=C(C1)NC1=C(C(=O)CC(C)(C)C1)C2c1c[nH]c2cc(Br)ccc12`, in the experiment with Stomach [1], the Emax at 300 µM amounted to 52.7%. The result with Stomach [2] and with Stomach [3] was Active. In the experiment with Stomach [4], the pD2 stood at 4.25.
With `O=C1CCCC2=C1C(c1c[nH]c3ccc(Br)cc13)C1=C(CCCC1=O)N2`, the Emax result with Stomach [1] was “inactive”. Also, the result in the experiment with Stomach [5], with Stomach [6] and in the experiment with Stomach [7] was Active. Besides, in the experiment on Stomach [4] (Oryctolagus cuniculus), the pD2 entry is “inactive”.
`Cn1cc(C2C3=C(CCCC3=O)NC3=C2C(=O)CCC3)c2ccccc21`: the Emax entry in the experiment on Stomach [1] was “inactive”. Further, the result in the experiment with Stomach [5], in the experiment with Stomach [6] and with Stomach [7] was Active. Also, the pD2 entry in the experiment with Stomach [4] (Oryctolagus cuniculus) was “inactive”.
With `Cn1c(C2C3=C(CC(C)(C)CC3=O)NC3=C2C(=O)CC(C)(C)C3)cc2ccccc21`, the maximal effect (Emax) at 300 µM with Stomach [1] was 34%. The result with Stomach [2] and with Stomach [3] was Active. Moreover, the pD2 in the experiment with Stomach [4] stood at 4.1.
